Literature values, collected in patent US5374661A (Sano Corporation, priority 1993, dated 1994).

Tests used:
[1] = oral

Structure (SMILES): O=C(O)Cc1ccccc1Nc1c(Cl)cccc1Cl [Diclofenac]
- inhibition of cyclooxygenase pathway (in words) (cyclooxygenase): inhibits the cyclooxygenase pathway with subsequent reduction in prostaglandin and thromboxane production
- inhibition of lipoxygenase pathway (in words) (lipoxygenase pathway): may inhibit the lipoxygenase pathway with subsequent reduction in leukotriene production
- less frequent side effects [1]: abdominal distension, flatulence and peptic ulcers with bleeding
- most common gastrointestinal side effects [1]: nausea, vomiting, abdominal pain, dyspepsia and diarrhea
